Values of other authors, collected in patent publication US10258598B2, “Compounds for use in the prevention or treatment of cancer” ([…], priority 2014, dated 2019).
Where a name gives a salt, the structure may show the parent alone.

Test system: norepinephrine and dopamine stores in catecholaminergic neurons in the brain stem
Conditions: 1 mg/kg s.c.; cited from earlier work

COc1cc2c(cc1OC)C1CC(=O)C(CC(C)C)CN1CC2 (stereo not shown) [Tetrabenazine, Tetrabenazine HCl]
depletion of norepinephrine and dopamine from their stores: at least 90%
